Test results reported in article PMC5766581, “NF-κB inducing kinase is a therapeutic target for systemic lupus erythematosus” (Nature Communications, 2018).

What was measured:
Assay in all cases: SelectScreen kinase panel
Format in all cases: binding
[1] = biological target: T1, WNK2 (Homo sapiens, UniProt Q9Y3S1)
T1 construct: purchased Invitrogen / ThermoFisher SelectScreen
Method: (§1) The ability of NIK to catalyze the hydrolysis of adenosine-5′-triphosphate (ATP) was monitored using the Transcreener ADP (adenosine-5′-diphosphate) assay (Bell Brook Labs, Fitchburg, WI). Purified human NIK kinase domain (a.a. 340–694) (0.5 nM) or mouse NIK kinase domain (a.a. 329–675) (1 nM) derived from a baculovirus-infected insect cell expression system was incubated with test compounds for 0.5–2 h in 50 mM HEPES buffer (pH 7.2) containing 10 mM MgCl2, 2 mM dithiothreitol, 10 μM ATP, 0.01% Triton X-100, 0.1% gamma-globulins from bovine blood, 1% dimethylsulfoxide (DMSO), 7 μg/mL ADP antibody and 5 nM ADP-MR121 633 tracer. Reactions were quenched by the addition of 20 mM EDTA and 0.01% Brij 35. The tracer bound to the antibody was displaced by the ADP generated during the NIK reaction, which caused a decrease in fluorescence polarization that was measured by laser excitation at 633 nm with a Fluorescence Correlation Spectroscopy Plus reader (Evotec AG). Equilibrium dissociation constant (Ki) values for NIK inhibitors are calculated from plots of activity vs. inhibitor concentration using Morrison’s quadratic equation that accounts for the potential of tight binding, and by also applying the conversion factor that accounted for competitive inhibition and the concentration of substrate used in the assay relative to its Michaelis constant (Km). The Ki values with hPKD1 (PKCμ) were determined using the same assay conditions as for NIK. Ki measurements for hKHS1 and hLRRK2, as well as broad kinase selectivity profiling for SMI1, were carried out by Invitrogen using their SelectScreen kinase assay panel (ThermoFisher Scientific, Madison, WI). The vendor offered two types of kinase activity assays, a peptide phosphorylation assay (Z′-LYTE) and an ADP quantitation assay (Adapta), as well as one type of kinase ATP site competitive binding assay (LanthaScreen). See vendor web site for technology and protocol details for each specific kinase assay.
(§2) The average % Inhibition of each kinase is reported (Supplementary Table 1).

[2] = biological target: T2, BMPR1A (Homo sapiens, UniProt P36894)
T2 construct: purchased Invitrogen / ThermoFisher SelectScreen
Method: as §1, §2

[3] = biological target: T3, MEK1 (Homo sapiens, UniProt Q02750)
T3 construct: purchased Invitrogen / ThermoFisher SelectScreen
Method: as §1, §2

[4] = biological target: T4, CAMKK1 (Homo sapiens, UniProt Q8N5S9)
T4 construct: purchased Invitrogen / ThermoFisher SelectScreen
T4 sequence (Q8N5S9 whole entry): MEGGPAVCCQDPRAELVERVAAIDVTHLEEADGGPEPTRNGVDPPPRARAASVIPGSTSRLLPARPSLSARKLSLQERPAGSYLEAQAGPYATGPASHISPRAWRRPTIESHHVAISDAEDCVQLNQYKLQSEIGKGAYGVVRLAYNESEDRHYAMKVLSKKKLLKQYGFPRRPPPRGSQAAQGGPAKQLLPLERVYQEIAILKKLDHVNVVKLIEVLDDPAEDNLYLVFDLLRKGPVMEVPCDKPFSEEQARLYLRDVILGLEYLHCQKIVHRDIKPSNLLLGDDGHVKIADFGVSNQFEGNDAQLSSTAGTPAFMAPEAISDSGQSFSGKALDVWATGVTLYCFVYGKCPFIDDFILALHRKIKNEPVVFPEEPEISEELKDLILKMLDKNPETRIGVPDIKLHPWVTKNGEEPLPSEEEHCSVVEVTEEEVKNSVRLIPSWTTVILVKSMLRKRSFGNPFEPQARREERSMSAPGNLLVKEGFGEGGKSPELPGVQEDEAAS
Method: as §1, §2

[5] = biological target: T5, CDK8/cyclinC (Homo sapiens, UniProt P49336)
T5 construct: purchased Invitrogen / ThermoFisher SelectScreen
Method: as §1, §2

[6] = biological target: T6, MEKK2 (Homo sapiens, UniProt Q9Y2U5)
T6 construct: purchased Invitrogen / ThermoFisher SelectScreen
Method: as §1, §2

[7] = biological target: T7, MYLK (Homo sapiens, UniProt Q15746)
T7 construct: purchased Invitrogen / ThermoFisher SelectScreen
T7 sequence (Q15746 whole entry): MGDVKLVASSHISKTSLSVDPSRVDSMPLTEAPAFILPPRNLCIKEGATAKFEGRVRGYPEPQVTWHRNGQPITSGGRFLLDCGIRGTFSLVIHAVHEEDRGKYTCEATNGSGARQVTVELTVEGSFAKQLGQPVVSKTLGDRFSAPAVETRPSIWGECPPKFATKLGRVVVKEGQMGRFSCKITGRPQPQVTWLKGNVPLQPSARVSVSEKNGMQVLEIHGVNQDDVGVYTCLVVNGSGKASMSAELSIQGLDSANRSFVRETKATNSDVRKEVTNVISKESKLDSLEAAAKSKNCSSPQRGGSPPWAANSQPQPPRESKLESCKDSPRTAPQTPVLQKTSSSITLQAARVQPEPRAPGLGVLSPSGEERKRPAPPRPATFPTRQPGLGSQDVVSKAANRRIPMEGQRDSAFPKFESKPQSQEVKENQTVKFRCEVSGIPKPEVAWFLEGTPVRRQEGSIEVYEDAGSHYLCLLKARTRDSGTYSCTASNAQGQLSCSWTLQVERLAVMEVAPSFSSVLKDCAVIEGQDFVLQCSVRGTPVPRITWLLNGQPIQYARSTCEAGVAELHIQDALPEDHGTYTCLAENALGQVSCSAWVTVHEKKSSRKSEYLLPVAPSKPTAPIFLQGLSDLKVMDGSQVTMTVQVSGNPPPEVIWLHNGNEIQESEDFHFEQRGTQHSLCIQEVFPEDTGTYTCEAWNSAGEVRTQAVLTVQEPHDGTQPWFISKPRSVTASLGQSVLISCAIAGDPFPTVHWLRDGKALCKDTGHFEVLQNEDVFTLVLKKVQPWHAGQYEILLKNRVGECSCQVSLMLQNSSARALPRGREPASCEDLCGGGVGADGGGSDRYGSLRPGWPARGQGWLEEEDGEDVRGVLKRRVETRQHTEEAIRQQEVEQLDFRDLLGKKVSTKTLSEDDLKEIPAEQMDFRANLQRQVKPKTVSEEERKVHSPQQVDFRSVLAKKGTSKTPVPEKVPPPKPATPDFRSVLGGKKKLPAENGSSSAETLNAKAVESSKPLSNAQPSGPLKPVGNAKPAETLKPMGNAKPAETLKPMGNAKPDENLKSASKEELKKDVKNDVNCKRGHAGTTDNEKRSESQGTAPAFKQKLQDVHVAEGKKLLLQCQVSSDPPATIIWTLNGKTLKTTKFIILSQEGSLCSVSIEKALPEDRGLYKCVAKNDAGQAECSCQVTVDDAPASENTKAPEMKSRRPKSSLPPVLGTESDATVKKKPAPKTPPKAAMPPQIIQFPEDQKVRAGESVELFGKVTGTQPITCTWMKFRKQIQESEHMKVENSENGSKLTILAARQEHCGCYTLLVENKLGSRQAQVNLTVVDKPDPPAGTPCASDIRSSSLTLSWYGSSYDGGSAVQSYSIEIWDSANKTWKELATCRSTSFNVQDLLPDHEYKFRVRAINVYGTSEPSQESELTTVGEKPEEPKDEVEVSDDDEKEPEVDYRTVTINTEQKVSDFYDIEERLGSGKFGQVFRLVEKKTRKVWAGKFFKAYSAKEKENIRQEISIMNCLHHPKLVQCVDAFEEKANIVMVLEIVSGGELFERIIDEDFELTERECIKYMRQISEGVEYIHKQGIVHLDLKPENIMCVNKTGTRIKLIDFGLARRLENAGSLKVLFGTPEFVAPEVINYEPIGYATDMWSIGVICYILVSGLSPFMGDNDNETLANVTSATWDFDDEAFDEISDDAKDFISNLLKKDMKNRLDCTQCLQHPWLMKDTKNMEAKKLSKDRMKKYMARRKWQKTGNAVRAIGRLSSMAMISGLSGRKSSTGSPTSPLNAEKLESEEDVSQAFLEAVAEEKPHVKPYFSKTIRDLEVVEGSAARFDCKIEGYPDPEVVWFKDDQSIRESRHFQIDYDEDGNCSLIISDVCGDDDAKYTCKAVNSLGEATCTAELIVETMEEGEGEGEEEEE
Method: as §1, §2

[8] = biological target: T8, AVCR2B (Homo sapiens, UniProt Q13705)
T8 construct: purchased Invitrogen / ThermoFisher SelectScreen
T8 sequence (Q13705 19-512): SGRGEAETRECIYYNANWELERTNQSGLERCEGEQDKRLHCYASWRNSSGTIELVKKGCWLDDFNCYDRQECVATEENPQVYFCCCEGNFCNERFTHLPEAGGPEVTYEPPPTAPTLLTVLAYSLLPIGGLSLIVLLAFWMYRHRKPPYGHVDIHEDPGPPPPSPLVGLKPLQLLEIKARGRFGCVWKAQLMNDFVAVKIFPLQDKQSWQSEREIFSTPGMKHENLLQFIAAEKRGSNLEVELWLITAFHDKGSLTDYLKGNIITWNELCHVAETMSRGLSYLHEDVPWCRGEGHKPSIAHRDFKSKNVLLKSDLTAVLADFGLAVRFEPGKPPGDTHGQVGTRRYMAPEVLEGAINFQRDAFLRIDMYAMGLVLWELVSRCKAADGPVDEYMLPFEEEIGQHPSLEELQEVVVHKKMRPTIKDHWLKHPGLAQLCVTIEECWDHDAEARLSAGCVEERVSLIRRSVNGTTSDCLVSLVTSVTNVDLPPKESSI
Method: as §1, §2

[9] = biological target: T9, DMPK (Homo sapiens, UniProt Q09013)
T9 construct: purchased Invitrogen / ThermoFisher SelectScreen
Method: as §1, §2

[10] = biological target: T10, ZAK (Homo sapiens, UniProt Q9NYL2)
T10 construct: purchased Invitrogen / ThermoFisher SelectScreen
Method: as §1, §2

[11] = biological target: T11, NLK (Homo sapiens, UniProt Q9UBE8)
T11 construct: purchased Invitrogen / ThermoFisher SelectScreen
Method: as §1, §2

[12] = biological target: T12, TTK (Homo sapiens, UniProt P33981)
T12 construct: purchased Invitrogen / ThermoFisher SelectScreen
Method: as §1, §2

[13] = biological target: T13, MEK3 (Homo sapiens, UniProt P46734)
T13 construct: purchased Invitrogen / ThermoFisher SelectScreen
T13 sequence (P46734 whole entry): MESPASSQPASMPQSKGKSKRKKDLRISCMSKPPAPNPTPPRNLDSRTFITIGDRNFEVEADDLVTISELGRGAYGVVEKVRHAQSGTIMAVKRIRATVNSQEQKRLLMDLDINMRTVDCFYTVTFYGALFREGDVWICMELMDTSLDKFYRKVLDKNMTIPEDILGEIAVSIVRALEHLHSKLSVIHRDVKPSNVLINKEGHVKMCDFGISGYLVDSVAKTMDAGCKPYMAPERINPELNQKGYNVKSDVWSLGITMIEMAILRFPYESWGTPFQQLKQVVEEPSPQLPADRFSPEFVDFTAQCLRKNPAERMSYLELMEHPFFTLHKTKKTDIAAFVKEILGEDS
Method: as §1, §2

[14] = biological target: T14, MKNK2 (Homo sapiens, UniProt Q9HBH9)
T14 construct: purchased Invitrogen / ThermoFisher SelectScreen
Method: as §1, §2

[15] = biological target: T15, DDR1 (Homo sapiens, UniProt Q08345)
T15 construct: purchased Invitrogen / ThermoFisher SelectScreen
Method: as §1, §2

[16] = biological target: T16, MLK2 (Homo sapiens, UniProt Q02779)
T16 construct: purchased Invitrogen / ThermoFisher SelectScreen
Method: as §1, §2

[17] = biological target: T17, B -Raf (Homo sapiens, UniProt P15056)
T17 construct: purchased Invitrogen / ThermoFisher SelectScreen
Method: as §1, §2

[18] = biological target: T18, STK33 (Homo sapiens, UniProt Q9BYT3)
T18 construct: purchased Invitrogen / ThermoFisher SelectScreen
Method: as §1, §2

[19] = biological target: T19, TNK2 (Homo sapiens, UniProt Q07912)
T19 construct: purchased Invitrogen / ThermoFisher SelectScreen
Method: as §1, §2

[20] = biological target: T20, TGFBR1 (Homo sapiens, UniProt P36897)
T20 construct: purchased Invitrogen / ThermoFisher SelectScreen
Method: as §1, §2

[21] = biological target: T21, RAF1 (Y340D, Y341D) (Homo sapiens, UniProt P04049, Y340D/Y341D)
T21 construct: purchased Invitrogen / ThermoFisher SelectScreen
Method: as §1, §2

[22] = biological target: T22, TEC (Homo sapiens, UniProt P42680)
T22 construct: purchased Invitrogen / ThermoFisher SelectScreen
Method: as §1, §2

[23] = biological target: T23, CLK4 (Homo sapiens, UniProt Q9HAZ1)
T23 construct: purchased Invitrogen / ThermoFisher SelectScreen
T23 sequence (Q9HAZ1 whole entry): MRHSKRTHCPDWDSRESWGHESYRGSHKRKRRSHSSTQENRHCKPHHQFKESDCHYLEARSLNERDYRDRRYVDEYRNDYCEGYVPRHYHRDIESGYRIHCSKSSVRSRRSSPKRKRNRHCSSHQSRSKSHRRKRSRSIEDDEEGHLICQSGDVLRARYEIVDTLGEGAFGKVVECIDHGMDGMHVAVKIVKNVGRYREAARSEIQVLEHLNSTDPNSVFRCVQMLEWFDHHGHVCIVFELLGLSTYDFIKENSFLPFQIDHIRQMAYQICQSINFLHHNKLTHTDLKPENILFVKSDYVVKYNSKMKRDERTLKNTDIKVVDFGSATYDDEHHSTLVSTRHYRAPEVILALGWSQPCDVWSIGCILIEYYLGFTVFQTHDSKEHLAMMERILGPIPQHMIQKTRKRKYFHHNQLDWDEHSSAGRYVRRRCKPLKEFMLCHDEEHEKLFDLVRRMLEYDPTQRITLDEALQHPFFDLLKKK
Method: as §1, §2

[24] = biological target: T24, SLK (Homo sapiens, UniProt Q9H2G2)
T24 construct: purchased Invitrogen / ThermoFisher SelectScreen
T24 sequence (Q9H2G2 whole entry): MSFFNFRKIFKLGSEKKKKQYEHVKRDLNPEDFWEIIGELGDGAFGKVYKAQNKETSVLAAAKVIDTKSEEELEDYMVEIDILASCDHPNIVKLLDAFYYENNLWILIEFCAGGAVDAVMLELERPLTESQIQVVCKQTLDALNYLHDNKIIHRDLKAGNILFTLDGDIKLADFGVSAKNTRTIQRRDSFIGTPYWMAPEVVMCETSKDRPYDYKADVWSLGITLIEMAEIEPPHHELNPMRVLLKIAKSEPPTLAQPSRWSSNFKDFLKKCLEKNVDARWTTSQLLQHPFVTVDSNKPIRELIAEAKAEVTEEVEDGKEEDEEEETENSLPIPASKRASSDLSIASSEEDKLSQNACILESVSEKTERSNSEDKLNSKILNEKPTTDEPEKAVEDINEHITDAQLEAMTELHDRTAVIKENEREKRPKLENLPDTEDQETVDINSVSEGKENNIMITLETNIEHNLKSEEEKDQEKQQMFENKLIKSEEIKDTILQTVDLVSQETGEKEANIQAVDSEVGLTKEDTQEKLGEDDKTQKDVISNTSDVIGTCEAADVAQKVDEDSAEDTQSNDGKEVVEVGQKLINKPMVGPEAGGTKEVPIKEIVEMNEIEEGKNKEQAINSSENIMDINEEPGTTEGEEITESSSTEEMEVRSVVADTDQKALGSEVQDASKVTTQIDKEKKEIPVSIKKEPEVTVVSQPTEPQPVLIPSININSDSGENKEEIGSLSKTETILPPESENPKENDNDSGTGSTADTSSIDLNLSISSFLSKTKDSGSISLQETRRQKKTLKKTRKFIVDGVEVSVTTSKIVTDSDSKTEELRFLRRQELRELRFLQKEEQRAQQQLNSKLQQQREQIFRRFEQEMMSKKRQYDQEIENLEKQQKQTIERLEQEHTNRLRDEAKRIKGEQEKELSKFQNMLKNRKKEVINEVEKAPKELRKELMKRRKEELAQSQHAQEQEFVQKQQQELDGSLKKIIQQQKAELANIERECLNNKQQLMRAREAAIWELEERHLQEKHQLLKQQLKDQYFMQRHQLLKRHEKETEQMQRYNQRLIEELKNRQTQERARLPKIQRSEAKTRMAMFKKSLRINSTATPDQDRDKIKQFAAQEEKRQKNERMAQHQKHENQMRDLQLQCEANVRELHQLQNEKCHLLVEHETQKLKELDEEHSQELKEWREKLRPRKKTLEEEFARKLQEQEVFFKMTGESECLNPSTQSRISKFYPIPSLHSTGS
Method: as §1, §2

[25] = biological target: T25, MYLK3 (Homo sapiens, UniProt Q32MK0)
T25 construct: purchased Invitrogen / ThermoFisher SelectScreen
Method: as §1, §2

COc1cc(C(N)=O)nc(-c2cccc(C#C[C@]3(O)CCN(C)C3=O)c2)c1 [NIK SMI1]
inhibition at 1 µM [1]: 1.7% | inhibition at 1 µM [2]: -3.9% | inhibition at 1 µM [3]: 43.1% | inhibition at 1 µM [4]: -11.6% | inhibition at 1 µM [5]: 7.8% | inhibition at 1 µM [6]: 66.8% | inhibition at 1 µM [7]: 7.5% | inhibition at 1 µM [8]: 0.8% | inhibition at 1 µM [9]: 1.6% | inhibition at 1 µM [10]: -0.8% | inhibition at 1 µM [11]: 4.2% | inhibition at 1 µM [12]: 13.2% | inhibition at 1 µM [13]: 11.4% | inhibition at 1 µM [14]: 23.3% | inhibition at 1 µM [15]: 2.7% | inhibition at 1 µM [16]: 9.9% | inhibition at 1 µM [17]: -0.3% | inhibition at 1 µM [18]: 3.9% | inhibition at 1 µM [19]: 0.1% | inhibition at 1 µM [20]: -9.4% | inhibition at 1 µM [21]: -1.5% | inhibition at 1 µM [22]: 1.1% | inhibition at 1 µM [23]: 13.7% | inhibition at 1 µM [24]: 2.6% | inhibition at 1 µM [25]: 45.3%
